Test results published in paper PMC9917560, “Design, Synthesis and Antimicrobial Evaluation of New N-(1-Hydroxy-1,3-dihydrobenzo[c][1,2]oxaborol-6-yl)(hetero)aryl-2-carboxamides as Potential Inhibitors of Mycobacterial Leucyl-tRNA Synthetase” (International Journal of Molecular Sciences, 2023).
≈ marks a conversion by molar mass, not a printed value. Where two headings read alike, the source gives them in different places.

Legend:
[1] = system: Trichophyton interdigitale CCM 8377 (ATCC 9533); test: Antifungal microdilution broth (EUCAST); format: cell-based; settings: Trichophyton interdigitale, read-out: MIC Trichophyton interdigitale
[2] = system: Lichtheimia corymbifera CCM 8077; test: Antifungal microdilution broth (EUCAST); format: cell-based; settings: Lichtheimia corymbifera, CCM8077, read-out: MIC Lichtheimia corymbifera
[3] = system: Pseudomonas aeruginosa CCM 3955 (ATCC 27853); test: Antibacterial microdilution broth (EUCAST); format: cell-based; settings: read-out: MIC Pseudomonas aeruginosa
[4] = system: Mycobacterium avium DSM 44,156 (ATCC 25291); test: Antimycobacterial microdilution (resazurin) vs M. avium; format: cell-based; settings: Mycobacterium avium, Middlebrook 7H9, resazurin; read-out: MIC M. avium
[5] = system: Candida krusei CCM 8271 (ATCC 6258); test: Antifungal microdilution broth (EUCAST); format: cell-based; settings: Pichia kudriavzevii, read-out: MIC Candida krusei
[6] = system: Enterococcus faecalis CCM 4224 (ATCC 29212); test: Antibacterial microdilution broth (EUCAST); format: cell-based; settings: read-out: MIC Enterococcus faecalis
[7] = system: Mycobacterium tuberculosis H37Ra ITM-M006710 (ATCC 9431); test: Antimycobacterial microdilution (resazurin) vs Mtb H37Ra; format: cell-based; settings: Middlebrook 7H9, resazurin, recalculated from µg/mL, read-out: MIC Mtb H37Ra
[8] = system: Candida tropicalis CCM 8264 (ATCC 750); test: Antifungal microdilution broth (EUCAST); format: cell-based; settings: read-out: MIC Candida tropicalis
HepG2 cell line = test: Cytotoxicity screening, CellTiter 96 assay; settings: for IC50: Homo sapiens, HepG2, 24 h, read-out: IC50 HepG2
[9] = system: Mycobacterium kansasii DSM 44,162 (ATCC 12478); test: Antimycobacterial microdilution (resazurin) vs M. kansasii; format: cell-based; settings: read-out: MIC M. kansasii
[10] = system: Mycolicibacterium aurum DSM 43,999 (ATCC 23366); test: Antimycobacterial microdilution (resazurin) vs M. aurum; format: cell-based; settings: Middlebrook 7H9, resazurin, read-out: MIC M. aurum
[11] = system: Mycobacterium tuberculosis H37Rv CNCTC My 331/88 (ATCC 27294); test: Microplate Alamar Blue assay vs Mtb H37Rv; format: cell-based; settings: Mycobacterium tuberculosis, pH 6.6, MABA, Middlebrook 7H9 pH 6.6, recalculated from µg/mL; read-out: MIC Mtb H37Rv
[12] = system: Candida albicans CCM 8320 (ATCC 24433); test: Antifungal microdilution broth (EUCAST); format: cell-based; settings: Candida albicans, read-out: MIC Candida albicans
[13] = system: Klebsiella pneumoniae CCM 4415 (ATCC 10031); test: Antibacterial microdilution broth (EUCAST); format: cell-based; settings: Klebsiella pneumoniae, read-out: MIC Klebsiella pneumoniae
[14] = system: Acinetobacter baumannii DSM 30007 (ATCC 19606); test: Antibacterial microdilution broth (EUCAST); format: cell-based; settings: read-out: MIC Acinetobacter baumannii
[15] = system: Escherichia coli CCM 3954 (ATCC 25922); test: Antibacterial microdilution broth (EUCAST); format: cell-based; settings: Escherichia coli, read-out: MIC Escherichia coli
[16] = system: Candida parapsilosis CCM 8260 (ATCC 22019); test: Antifungal microdilution broth (EUCAST); format: cell-based; settings: Lodderomyces parapsilosis, read-out: MIC Candida parapsilosis
[17] = system: Mycolicibacterium smegmatis DSM 43,465 (ATCC 607); test: Antimycobacterial microdilution (resazurin) vs M. smegmatis; format: cell-based; settings: Middlebrook 7H9, resazurin, read-out: MIC M. smeg.
[18] = system: Staphylococcus aureus subsp. aureus CCM 4223 (ATCC 29213); test: Antibacterial microdilution broth (EUCAST); format: cell-based; settings: read-out: MIC Staphylococcus aureus subsp. aureus
[19] = system: methicillin-resistant Staphylococcus aureus subsp. aureus (MRSA) CCM 4750 (ATCC 43300); test: microbe, parasite or virus in culture; format: cell-based; settings: read-out: MIC Methicillin-resistant Staphylococcus aureus subsp. aureus
[20] = system: Aspergillus fumigatus ATCC 204305; test: Antifungal microdilution broth (EUCAST); format: cell-based; settings: Aspergillus fumigatus, ATCC204305, read-out: MIC Aspergillus fumigatus
[21] = system: Staphylococcus epidermidis CCM 4418 (ATCC 12228); test: Antibacterial microdilution broth (EUCAST); format: cell-based; settings: read-out: MIC Staphylococcus epidermidis
[22] = system: Aspergillus flavus CCM 8363; test: Antifungal microdilution broth (EUCAST); format: cell-based; settings: Aspergillus flavus, CCM8363, read-out: MIC Aspergillus flavus

SMILES: Nc1nccnc1C(=O)Nc1ccc2c(c1)B(O)OC2 [Compound 6, 3-amino-N-(1-hydroxy-1,3-dihydrobenzo[c][1,2]oxaborol-6-yl)pyrazine-2-carboxamide]
- MIC ([1]; 72h incubation): > 500 µM
- MIC ([1]; 120h incubation): > 500 µM
- melting point: 246.6 to 249.4 °C
- MIC ([2]; 24h incubation): > 500 µM
- MIC ([2]; 48h incubation): > 500 µM
- MIC ([3]; 24h incubation): > 500 µM
- MIC ([3]; 48h incubation): > 500 µM
- MIC [4]: > 1850 µM
- MIC ([5]; 24h incubation): > 500 µM
- MIC ([5]; 48h incubation): > 500 µM
- MIC ([6]; 24h incubation): > 500 µM
- MIC ([6]; 48h incubation): > 500 µM
- MIC [7]: > 1850 µM
- MIC ([8]; 24h incubation): > 500 µM
- MIC ([8]; 48h incubation): > 500 µM
- IC50 (HepG2 cell line): > 100 µM
- toxicity to HepG2 up to highest tested concentration (HepG2 cell line; tested up to 500 µM (2, 3), 250 µM (12, 17), 100 µM (6, 7, 11) because of solubility): non-toxic
- MIC [9]: > 1850 µM
- MIC [10]: 14.5 µM (≈ 3.91 µg/mL)
- MIC [11]: > 370 µM
- MIC ([12]; 24h incubation): > 500 µM
- MIC ([12]; 48h incubation): > 500 µM
- MIC ([13]; 24h incubation): > 500 µM
- MIC ([13]; 48h incubation): > 500 µM
- MIC ([14]; 24h incubation): > 500 µM
- MIC ([14]; 48h incubation): > 500 µM
- MIC ([15]; 24h incubation): > 500 µM
- MIC ([15]; 48h incubation): > 500 µM
- MIC ([16]; 24h incubation): > 500 µM
- MIC ([16]; 48h incubation): > 500 µM
- MIC [17]: 463 µM (≈ 125 µg/mL)
- MIC ([18]; 24h incubation): > 500 µM
- MIC ([18]; 48h incubation): > 500 µM
- MIC ([19]; 24 h): > 500 µM
- MIC ([19]; 48 h): > 500 µM
- MIC ([20]; 24h incubation): > 500 µM
- MIC ([20]; 48h incubation): > 500 µM
- MIC ([21]; 24h incubation): > 500 µM
- MIC ([21]; 48h incubation): > 500 µM
- MIC ([22]; 24h incubation): > 500 µM
- MIC ([22]; 48h incubation): > 500 µM

SMILES: O=C(Nc1ccc2c(c1)B(O)OC2)c1ncc[nH]c1=O [Compound 8, N-(1-hydroxy-1,3-dihydrobenzo[c][1,2]oxaborol-6-yl)-3-oxo-3,4-dihydropyrazine-2-carboxamide]
- MIC ([1]; 72h incubation): > 500 µM
- MIC ([1]; 120h incubation): > 500 µM
- melting point: 326.4 to 328.3 °C (dec.)
- MIC ([2]; 24h incubation): > 500 µM
- MIC ([2]; 48h incubation): > 500 µM
- MIC ([3]; 24h incubation): > 500 µM
- MIC ([3]; 48h incubation): > 500 µM
- MIC [4]: 57.6 µM (≈ 15.6 µg/mL)
- MIC ([5]; 24h incubation): > 500 µM
- MIC ([5]; 48h incubation): > 500 µM
- MIC ([6]; 24h incubation): > 500 µM
- MIC ([6]; 48h incubation): > 500 µM
- MIC [7]: 231 µM (≈ 62.5 µg/mL)
- MIC ([8]; 24h incubation): > 500 µM
- MIC ([8]; 48h incubation): > 500 µM
- IC50 (HepG2 cell line): > 1000 µM
- MIC [9]: 231 µM (≈ 62.5 µg/mL)
- MIC [10]: 28.8 µM (≈ 7.81 µg/mL)
- MIC [11]: 92.2 µM (≈ 25 µg/mL)
- MIC ([12]; 24h incubation): > 500 µM
- MIC ([12]; 48h incubation): > 500 µM
- MIC ([13]; 24h incubation): > 500 µM
- MIC ([13]; 48h incubation): > 500 µM
- MIC ([14]; 24h incubation): > 500 µM
- MIC ([14]; 48h incubation): > 500 µM
- MIC ([15]; 24h incubation): > 500 µM
- MIC ([15]; 48h incubation): > 500 µM
- MIC ([16]; 24h incubation): > 500 µM
- MIC ([16]; 48h incubation): > 500 µM
- MIC [17]: 28.8 µM (≈ 7.81 µg/mL)
- MIC ([18]; 24 h): 125 µM (≈ 33.9 µg/mL)
- MIC ([18]; 48 h): 125 µM (≈ 33.9 µg/mL)
- MIC ([19]; 24 h): 125 µM (≈ 33.9 µg/mL)
- MIC ([19]; 48 h): 125 µM (≈ 33.9 µg/mL)
- MIC ([20]; 24h incubation): > 500 µM
- MIC ([20]; 48h incubation): > 500 µM
- MIC ([21]; 24h incubation): 500 µM (≈ 136 µg/mL)
- MIC ([21]; 48h incubation): 500 µM (≈ 136 µg/mL)
- MIC ([22]; 24h incubation): > 500 µM
- MIC ([22]; 48h incubation): > 500 µM

SMILES: O=C(Nc1ccc2c(c1)B(O)OC2)c1ccc(Cl)cc1 [Compound 14, 4-chloro-N-(1-hydroxy-1,3-dihydrobenzo[c][1,2]oxaborol-6-yl)benzamide]
- MIC ([1]; 72h incubation): > 125 µM
- MIC ([1]; 120h incubation): > 125 µM
- melting point: 225.5 to 228.1 °C
- MIC ([2]; 24h incubation): > 125 µM
- MIC ([2]; 48h incubation): > 125 µM
- MIC ([3]; 24h incubation): > 500 µM
- MIC ([3]; 48h incubation): > 500 µM
- MIC [4]: 435 µM (≈ 125 µg/mL)
- MIC ([5]; 24h incubation): > 125 µM
- MIC ([5]; 48h incubation): > 125 µM
- MIC ([6]; 24h incubation): > 500 µM
- MIC ([6]; 48h incubation): > 500 µM
- MIC [7]: 435 µM (≈ 125 µg/mL)
- MIC ([8]; 24h incubation): > 125 µM
- MIC ([8]; 48h incubation): > 125 µM
- IC50 (HepG2 cell line): > 1000 µM
- MIC ([9]; Middlebrook 7H9, resazurin): 217 µM (≈ 62.5 µg/mL)
- MIC [10]: 13.6 µM (≈ 3.91 µg/mL)
- MIC [11]: 43.5 µM (≈ 12.5 µg/mL)
- MIC ([12]; 24h incubation): > 125 µM
- MIC ([12]; 48h incubation): > 125 µM
- MIC ([13]; 24h incubation): > 500 µM
- MIC ([13]; 48h incubation): > 500 µM
- MIC ([14]; 24h incubation): > 500 µM
- MIC ([14]; 48h incubation): > 500 µM
- MIC ([15]; 24h incubation): > 500 µM
- MIC ([15]; 48h incubation): > 500 µM
- MIC ([16]; 24h incubation): > 125 µM
- MIC ([16]; 48h incubation): > 125 µM
- MIC [17]: 217 µM (≈ 62.5 µg/mL)
- MIC ([18]; 24h incubation): > 500 µM
- MIC ([18]; 48h incubation): > 500 µM
- MIC ([19]; 24 h): > 500 µM
- MIC ([19]; 48 h): > 500 µM
- MIC ([20]; 24h incubation): > 125 µM
- MIC ([20]; 48h incubation): > 125 µM
- MIC ([21]; 24h incubation): > 500 µM
- MIC ([21]; 48h incubation): > 500 µM
- MIC ([22]; 24h incubation): > 125 µM
- MIC ([22]; 48h incubation): > 125 µM
